Reference: PubChem BioAssay (NCI)
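GI50 marks 50% less growth. The concentration for full growth arrest is given as TGI.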

Columns and labels:
Experiment in all cases: NCI tumour cell line growth inhibition, 384-well format
K-562 leukemia = tested on: K-562 leukemia
CAKI-1 renal = tested on: CAKI-1 renal
SK-MEL-5 melanoma = tested on: SK-MEL-5 melanoma
NCI-H226 lung = tested on: NCI-H226 lung
UO-31 renal = tested on: UO-31 renal
M14 melanoma = tested on: M14 melanoma
ACHN renal = tested on: ACHN renal
BT-549 breast = tested on: BT-549 breast
SN12C renal = tested on: SN12C renal
HCC-2998 colon = tested on: HCC-2998 colon
SK-OV-3 ovarian = tested on: SK-OV-3 ovarian
NCI-H322M lung = tested on: NCI-H322M lung
NCI/ADR-RES ovarian = tested on: NCI/ADR-RES ovarian

Q: What does the source list for Nc1nc2cc(-c3ccc4ncc(C(=O)N5CCOCC5)n4c3)ccc2o1?
A: GI50 (K-562 leukemia): > 86 µM; TGI (K-562 leukemia): > 100 µM; GI50 (CAKI-1 renal): 6.74 µM; TGI (CAKI-1 renal): > 100 µM; GI50 (SK-MEL-5 melanoma): 5.97 µM; TGI (SK-MEL-5 melanoma): > 59.6 µM; GI50 (NCI-H226 lung): > 40.4 µM; TGI (NCI-H226 lung): > 100 µM; GI50 (UO-31 renal): 8.62 µM; TGI (UO-31 renal): > 100 µM; GI50 (M14 melanoma): 11.6 µM; TGI (M14 melanoma): > 100 µM; GI50 (ACHN renal): 8.58 µM; TGI (ACHN renal): > 100 µM; GI50 (BT-549 breast): 23.7 µM; TGI (BT-549 breast): > 100 µM; GI50 (SN12C renal): 7.67 µM; TGI (SN12C renal): > 100 µM; GI50 (HCC-2998 colon): 12.4 µM; TGI (HCC-2998 colon): > 100 µM; GI50 (SK-OV-3 ovarian): 2.09 µM; TGI (SK-OV-3 ovarian): 12.3 µM; GI50 (NCI-H322M lung): 6.17 µM; TGI (NCI-H322M lung): > 100 µM; GI50 (NCI/ADR-RES ovarian): > 100 µM; TGI (NCI/ADR-RES ovarian): > 100 µM
